Test results taken from EP4610267A1, “CYCLIC DINUCLEOTIDES AND CONJUGATES THEREOF WITH ANTIBODIES” (priority 2024, dated 2025).

What was measured:
[1] = tested on: CT26 mouse colon carcinoma; assay: CT26 mouse tumor model, intratumoral injection, tumor growth; type: in vivo, BALB/c mice; conditions: 5mg/kg intratumorally on day 1, 4 and 8
Procedure: The CT26 mouse colon carcinoma cell line was obtained from American Type Culture Collection (ATCC®, CRL-2638). The cells were cultured in RPMI-1640 medium containing 10% fetal bovine serum, 2 mM glutamine, 100 units/mL penicillin G sodium, and 100 µg/mL streptomycin sulfate at 37 °C in a humidified incubator with 5% CO2. On the day of tumor implantation in ten-week-old female BALB/c mice (Charles River Laboratories), CT26 cells harvested during the exponential growth phase were resuspended in phosphate-buffered saline (PBS) at a concentration of 1 × 10^7 cells/mL. Tumors were initiated by subcutaneous implantation of 1 × 10^6 CT26 cells (in a 0.1 mL suspension) into the right flank of each test animal. Tumor dimensions were measured in two directions, and tumor volumes were calculated using the formula (L × W^2)/2. Animals were pair matched when tumor reached volume 100 - 150 mm^3 (designated as day 1) and injected intratumorally (i.t.) on day 1, 4 and 8 with 5mg/kg or 1.5mg/kg Compound 2.2 or PBS in total volume 20 µL.

[2] = Pharmacokinetics of Compound 2.2 applied i.v.; type: in vivo; conditions: mice (Balb/c), 5mg/kg i.v.
Procedure: Pharmacokinetics of Compound 2.2 applied I.V. at dose 5mg/kg was determined in Balb/c mice. Plasma samples were precipitated with methanol (final concetration 70%) spiked with internal standard, the precipited proteins were removed by centrigugation and supernatant was evaporated. The analytes were dissolved in 100 µL of 10 mM CH3COONH4 by vortexing for 5 min. Compound 22 along with the corresponding internal standard were separated and detected using a liquid chromatograph Exion LC AD with tandem mass spectrometer QTrap 6500+ (both Sciex) equipped with a separation column Acquity BEH C18 1.7 µm, 50 × 2.1 mm, as well as a guard column 1.7 µm C18, 5 × 2.1 mm (both Waters). The mobile phase (A) used for separation consisted of 10 mM CH3COONH4 in deionized water, while mobile phase (B) was composed of 10 mM CH3COONH4 in methanol. […] Analytes were monitored through their specific multiple reaction monitoring (MRM) transitions by utilizing electrospray ionization (ESI) in a positive mode with the following parameters: 50 msec dwell time, entrance potential 10 V, ion source temperature 350°C, ion spray voltage 5.5 kV, curtain gas (40 psi), GS1 gas (50 psi), and GS2 gas (50 psi). Quantification of Compound 2.2 was conducted using a weighted calibration curve (1/x^2) with a structurally similar internal standard.

[3] = tested on: STING-dependent cytokine IP10 (CXCL10) in HCC1954 cells; assay: IP10 (CXCL10) induction in HCC1954 cells; type: cell-based, human; conditions: free Warhead CDN, no antibody
Procedure: (§1) HCC1954 and 293T reporter cells were cultured as previously described. HCC1954 cells, which naturally express both Her2 and TROP2, were seeded into collagen-coated 96-well plates at a density of 0.5×10^6 cells/ml (100 µl/well) in RPMI medium supplemented with 10% FBS and Penicillin/Streptomycin. The following day, the medium was completely removed, and serial dilutions of mAb2-CDN and mAb5-CDN conjugates in medium were added to the wells. Levels of the STING-dependent cytokine IP10 (CXCL10) induction were determined in the medium using ProcartaPlex Immunoassays after 24 hours of incubation following the manufacturer's protocol and measured on a MagPix instrument. […] Nonlinear regression curve fitting was applied for EC50 value calculations. The EC50 value represents the concentration of the payload CDN 2.2 conjugated to anti-Her2 mAb2 or anti-TROP2 mAb5 that results in half-maximal levels of IP-10. Twenty million 293T WT STING reporter cells were seeded into two T150 flasks, each containing 30 mL of DMEM with high glucose supplemented with 10% heat-inactivated FBS. One flask was designated for transfected cells, and the other served as a non-transfected control. After 24 hours, the cell culture medium was replaced with 27 mL of fresh media. […] A 50 µL mixture was transferred to white 96-well plates, and luminescence was measured using a TECAN reader.

[4] = tested on: 293T WT STING reporter cells expressing TROP2; assay: 293T WT STING reporter cells transiently expressing TROP2, luciferase; type: cell-based; conditions: free Warhead CDN, no antibody; TROP2+ 293T reporter cells
Procedure: as §1, with “IP-10.” for “IP-10. Twenty million 293T WT STING reporter cells were seeded into two T150 flasks, each containing 30 mL of DMEM with high glucose supplemented with 10% heat-inactivated FBS. One flask was designated for transfected cells, and the other served as a non-transfected control. After 24 hours, the cell culture medium was replaced with 27 mL of fresh media.”
EC50 values were calculated from an 8-point dose-response curve using GraphPad Prism (La Jolla, USA) with nonlinear regression curve fitting. The EC50 represents the concentration of the payload CDN 2.2 conjugated to anti-Her2 mAb2 or anti-TROP2 mAb5 that results in half-maximal levels of luminescence.

Nc1ncnc2c1ncn2[C@@H]1O[C@@H]2OCP(=O)(S)O[C@@H]3[C@H](F)[C@@H](COP(=O)(S)OC[C@H]2[C@H]1F)O[C@H]3n1cnc2c(=O)[nH]cnc21 (single isomer, unassigned) [Compound 2.2]
animals tumor free on day 65 (out twelve tumor bearing animals) [1]: Twelve
half-life [2]: less than 10 minutes
EC50 [3]: 1.7 µM
EC50 [4]: 0.7 µM
